In patent US20090188497A1, “MEDICAL PRODUCT CONTAINING TIOTROPIUM” (Boehringer Ingelheim International GmbH, priority 2003, published 2009) one finds sensitivity to moisture data, which are given here for one compound.

A short description of this data set: In-use stability test of FPD, capsules in opened blister at 40° C. and 75% Rh (tests S3-S5). The class given is physicochemical. Particulars: conclusion of the tests on SPIRIVA. The source says: SPIRIVA® powder formulation in bulk and SPIRIVA® capsules from our local pharmacy were introduced to the laboratory together with the […]®. The laboratory was set up to perform in-vitro tests according to European Pharmacopoeia (EP) and US Pharmacopoeia (USP) using two Andersen cascade impactors. All analytical work where then performed according to standardized methods for Physical Tests and Determinations for Aerosols, metered-dose inhalers and dry powder inhalers described in pharmacopoeias (e.g. USP 2002<601>) using a state of the art High Performance Liquid Chromatograph (HPLC) system.
From the blister holding 5 capsules one capsule was withdrawn and the remaining 4 capsules were put 4 days into 40° C. and 75% Rh. The blister containing the 4 capsules was then put in an exicator for 2 h before tests were performed. The test was performed with 4 kPa pressure drop over the […]® at room temperature and laboratory ambient conditions.
From the blister holding 5 capsules one capsule was withdrawn and the remaining 4 capsules were put 13 days into 40° C. and 75% Rh. The blister containing the 4 capsules was then put in an exicator for 2 h before tests were performed. The test was performed with 4 kPa pressure drop over the […]® at room temperature and laboratory ambient conditions. […]

The structures appear in SMILES notation.

As to `C[N+]1(C)[C@@H]2C[C@@H](OC(=O)C(O)(c3cccs3)c3cccs3)C[C@H]1[C@@H]1O[C@@H]12` [tiotropium], the sensitivity to moisture entry is on record as “extremely sensitive to moisture”.
